Measured values published in US20110244028A1, “METHOD OF SOLUBILIZING BIOLOGICALLY ACTIVE COMPOUNDS” (priority 2008, published 2011).
Read-outs that look alike come from different tables or passages of the source.

Assays:
[1] = for precipitation in liposomal dispersion after neutralization: 100 mg phospholipid/ml liposomes ca 30 nm in isotonic glycerol
Procedure: Visual assessment may be supported by comparing the transmission optical density (OD) measurements before and after the compound is added when the system is at equilibrium. […] The figures should be at least 80% of the initial transmission value of the blank dispersion which is used as a control. […] When the liposome dispersions are not sufficiently transparent the loading process can nevertheless be followed by e.g. using microscopy techniques to detect unassociated drug particles.
A first aqueous suspension comprising SUVs is prepared in a micro-fiuidizer. The dispersion contains 100 mg phospholipid/ml in isotonic glycerol solution.

[2] = cited from earlier work
[3] = cited from earlier work; remark: listed apart in the source
[4] = control experiment without phospholipid: isotonic glycerol solution neutralized to pH 7.0; format: physicochemical
Procedure: In a control experiment 25 μl of the 100 mg phenytoin/ml solution in 1 M NaOH is added to 1.0 ml of isotonic glycerol solution to make up 2500 μg phenytoin/ml.

[5] = cited from earlier work; remark: listed apart in the source
[6] = 2.5 mg drug/ml in isotonic glycerol solution, neutralized to pH 7.0
[7] = 5 mg drug/ml, neutralized to pH 7.0 with NaOH
[8] = 5 mg drug/ml in isotonic glycerol solution, neutralized to pH 7.0 with NaOH

SMILES | solubility in water at pH 7 [3] [μg/ml] | precipitation in control without lipid after neutralization [4, 6] | solubility at pH 1.2 [3] [μg/ml] | precipitation in liposomal dispersion after neutralization [1, 7] | precipitation in control without lipid after neutralization [4, 8] | further results
O=C1NC(=O)C(c2ccccc2)(c2ccccc2)N1 [phenytoin] | 3.7 | precipitates | – | – | – | amount solubilized in the liposomes ([1]; pH 7): 2500 µg; Log P oil/water [2]: 2.3; solubility in water at pH 7 ([3]; listed as Phenytoin): 37 μg/ml
OCCN(CCO)c1nc(N2CCCCC2)c2nc(N(CCO)CCO)nc(N3CCCCC3)c2n1 [dipyridamole] | 5 | precipitates | 1753 | – | – | precipitation in liposomal dispersion after neutralization ([1]; 2.5 mg drug/ml, neutralized to pH 7.0): No precipitated dipyridamole is noticed; pKa [5]: 6.4
O=C1NC(=O)C(c2ccccc2)(c2ccccc2)N1 [Phenytoin sodium] | – | – | – | – | – | solubility at pH 10-pH13 ([3]; pH 10-pH13, according to Martindale): freely soluble
CC(=O)N1CCN(c2ccc(OCC3COC(Cn4ccnc4)(c4ccc(Cl)cc4Cl)O3)cc2)CC1 (centres unmarked) [ketoconazole] | 2 | – | 2729 | no precipitated ketoconazole can be seen | precipitates | –
CN1C(=O)CN=C(c2ccccc2)c2cc(Cl)ccc21 [diazepam] | – | – | – | remain dear without diazepam precipitates | precipitates out | –
